{"source": "paper PMC2363984", "about": "(British Journal of Cancer, 2001)", "key": {"[1]": {"test": "Phase I toxicity of IP topotecan (WHO grading)"}, "clinical [2]": {"test": "clinical", "conditions": "female, human, in vivo, ip, 20 mg/m2, Cmax"}, "DNA topoisomerase I": {"tested_on": "DNA topoisomerase I", "parameters": "method as in Kingsbury et al, 1991", "conditions": "in vitro; ref Kingsbury et al, 1991; cited from earlier work"}, "recurrent ovarian cancer": {"tested_on": "recurrent ovarian cancer", "test": "Tumour responses to IP topotecan", "assay_type": "in vivo, human"}, "[3]": {"conditions": "female, human, in vivo"}, "[4]": {"tested_on": "human tumor colony forming units", "parameters": "method as in Burris et al, 1992", "conditions": "in vitro; ref Burris et al, 1992; cited from earlier work"}, "[5]": {"parameters": "method as in Rowinsky et al, 1992; Verweij et al, 1993; Herben et al, 1996", "conditions": "ref Rowinsky et al, 1992, Verweij et al, 1993, Herben et al, 1996, cited from earlier work"}, "[6]": {"conditions": "cited from earlier work"}, "ovarian cancer": {"tested_on": "ovarian cancer", "parameters": "method as in earlier work", "conditions": "patients who failed platinum based chemotherapy; ref Neijt et al, 1991; Kudelka et al, 1996; Ten Bokkel Huinink et al, 1997; cited from earlier work"}, "[7]": {"conditions": "in vitro, 1994, cited from earlier work"}, "[8]": {"conditions": "cited from earlier work", "remark": "listed apart in the source"}, "[9]": {"conditions": "in vivo"}, "clinical [10]": {"test": "clinical", "conditions": "female, human, in vivo, ip"}, "[11]": {"conditions": "human, in vivo, ip; for MRT / T1/2: female"}}, "note": "Read-outs that look alike come from different tables or passages of the source.", "data": [{"molecule": "CC[C@@]1(O)C(=O)OCc2c1cc1n(c2=O)Cc2cc3c(CN(C)C)c(O)ccc3nc2-1", "note": "[topotecan, Topotecan]", "values": [{"measurement": "Maximum tolerated dose (MTD)", "setting": "[1]", "value": 20, "unit": "mg/m2"}, {"measurement": "Cmax", "setting": "clinical [2]", "value": 12100, "unit": "ng/mL"}, {"measurement": "Inhibition of DNA topoisomerase I", "setting": "DNA topoisomerase I", "value": "potent inhibitor"}, {"measurement": "Partial responses (> 50% decrease in repeated CA125 levels)", "setting": "recurrent ovarian cancer; biochemically evaluable patients", "value": "6 of 13"}, {"measurement": "Stable disease for 6-8 cycles", "setting": "recurrent ovarian cancer; clinically evaluable patients", "value": "5 of 8"}, {"measurement": "Complete clinical responses", "setting": "recurrent ovarian cancer; pretreated patients, IP 5-30 mg/m2", "value": "no complete clinical responses"}, {"measurement": "Patients with progressive disease", "setting": "recurrent ovarian cancer; three by marker and three by clinical parameters", "value": "six"}, {"measurement": "Tmax (time to peak plasma level after start of IP administration)", "setting": "[3]", "value": "2.7 ± 1.1", "unit": "h"}, {"measurement": "Dose level from which plasma concentrations required for cytotoxicity in vitro were reached", "setting": "[3]; ip", "value": "≥ 15", "unit": "mg/m2"}, {"measurement": "T1/2", "setting": "[3]; ip", "value": "3.7 ± 1.3", "unit": "h"}, {"measurement": "MRT", "setting": "[3]; ip, 20 mg/m2", "value": 6.9, "unit": "h"}, {"measurement": "Threshold concentration for cytotoxic activity, continuous exposure", "setting": "[4]", "value": 100, "unit": "µg/L"}, {"measurement": "Form at equilibrium", "setting": "[5]; pH 7.4", "value": "open-ring form predominates"}, {"measurement": "Stability in infusion fluids", "setting": "[5]; pH < 4.0", "value": "stable"}, {"measurement": "Stability in plasma", "setting": "[5]; plasma", "value": "unstable"}, {"measurement": "Recommended dosage", "setting": "[6]; continuous 24-h IP infusion, ref Plaxe et al, 1998", "value": 3, "unit": "mg/m2"}, {"measurement": "Dose limiting toxicity in most studies", "setting": "[6]; ref Abbruzzese et al, 1993, Kantarjian et al, Rowinsky et al, 1994, Van Warmerdam et al, 1995, Hochster et al", "value": "neutropenia"}, {"measurement": "Duration of response", "setting": "ovarian cancer", "value": "22-32 weeks"}, {"measurement": "Cytotoxic concentrations", "setting": "[7]; ref Pizao et al", "value": "13.7 to 229", "unit": "µg/L"}, {"measurement": "Cytotoxic concentration", "setting": "[7]; ref Tanizawa et al", "value": 128, "unit": "µg/L"}, {"measurement": "Vss for lactone", "setting": "[8]; IV administration, ref Herben et al", "value": 94, "unit": "L/m2"}, {"measurement": "Terminal T1/2 for peritoneal topotecan", "setting": "[8]; continuous IP infusion, ref Plaxe et al, 1998", "value": 2.7, "unit": "h"}, {"measurement": "Patients with nausea and/or vomiting grade I-II", "setting": "[9]; female, human", "value": 12, "unit": "patients"}, {"measurement": "Platelets toxicity Grade III, worst haematologic toxicity (number)", "setting": "[9]; female, human, 74 cycles", "value": 2}, {"measurement": "Platelets toxicity Grade IV, worst haematologic toxicity (number)", "setting": "[9]; female, human, 74 cycles", "value": 0}, {"measurement": "WBC toxicity Grade III, worst haematologic toxicity (number)", "setting": "[9]; female, human, 74 cycles", "value": 5}, {"measurement": "WBC toxicity Grade IV, worst haematologic toxicity (number)", "setting": "[9]; female, human, 74 cycles", "value": 1}, {"measurement": "Duration of myelosuppression", "setting": "[9]; female, human, ip", "value": "< 7", "unit": "days"}, {"measurement": "Recommended dose for further phase II trials", "setting": "[9]; female, human, ip", "value": 20, "unit": "mg/m2"}, {"measurement": "Bleeding episodes", "setting": "[9]", "value": "No bleeding episodes"}, {"measurement": "Patients with abdominal pain grade I", "setting": "[9]", "value": "six"}, {"measurement": "Patients with nausea and vomiting grade III", "setting": "[9]", "value": "three"}, {"measurement": "Dose limiting toxicity (DLT)", "setting": "[9]; ip", "value": "acute hypotension, chills and fever"}, {"measurement": "Patients with generalized transient skin rash", "setting": "[9]; ip", "value": "four"}, {"measurement": "AUC", "setting": "clinical [10]; 5 mg/m2, AUC", "value": 81, "unit": "ng·h/mL"}, {"measurement": "MRT", "setting": "clinical [10]; 5 mg/m2, MRT", "value": 7, "unit": "h"}, {"measurement": "half-life", "setting": "clinical [10]; 5 mg/m2, T1/2", "value": 4.6, "unit": "h"}, {"measurement": "AUC", "setting": "clinical [10]; 10 mg/m2, AUC", "value": 107, "unit": "ng·h/mL"}, {"measurement": "Cmax", "setting": "clinical [10]; 10 mg/m2, Cmax", "value": 14, "unit": "ng/mL"}, {"measurement": "MRT", "setting": "clinical [10]; 10 mg/m2, MRT", "value": 6.5, "unit": "h"}, {"measurement": "half-life", "setting": "clinical [10]; 10 mg/m2, T1/2", "value": 3.9, "unit": "h"}, {"measurement": "Tmax", "setting": "clinical [10]; 10 mg/m2, Tmax", "value": 1.7, "unit": "h"}, {"measurement": "Tmax", "setting": "clinical [10]; 15 mg/m2, Tmax", "value": 1.6, "unit": "h"}, {"measurement": "MRT", "setting": "clinical [10]; 20 mg/m2, MRT", "value": 8.1, "unit": "h"}, {"measurement": "half-life", "setting": "clinical [10]; 20 mg/m2, T1/2", "value": 4.4, "unit": "h"}, {"measurement": "Tmax", "setting": "clinical [10]; 20 mg/m2, Tmax", "value": 3, "unit": "h"}, {"measurement": "Cmax", "setting": "clinical [10]; 30 mg/m2, Cmax", "value": 145, "unit": "ng/mL"}, {"measurement": "Tmax", "setting": "clinical [10]; 30 mg/m2, Tmax", "value": 1.8, "unit": "h"}, {"measurement": "half-life", "setting": "clinical [10]; T1/2", "value": 5.2, "unit": "h"}, {"measurement": "half-life", "setting": "clinical [10]; T1/2 of lactone in this study (discussion)", "value": 5.5, "unit": "h"}, {"measurement": "Tmax", "setting": "clinical [10]; Tmax (time to peak plasma level after start of IP administration)", "value": 2.1, "unit": "h"}, {"measurement": "MRT", "setting": "[11]; 10 mg/m2", "value": 2.6, "unit": "h"}, {"measurement": "T1/2", "setting": "[11]; 10 mg/m2", "value": 1.8, "unit": "h"}, {"measurement": "MRT", "setting": "[11]; 30 mg/m2", "value": 3.4, "unit": "h"}, {"measurement": "T1/2", "setting": "[11]; 30 mg/m2", "value": 2.3, "unit": "h"}, {"measurement": "CL", "setting": "[11]", "value": 0.8, "unit": "L/h/m2"}]}]}
